Experimental data: patent US20240238278A1, “Pharmaceutical Composition for Preventing or Treating Fibrosis” (Daewoong Pharmaceutical Co., Ltd., priority 2021, published 2024)

Columns and labels:
[1] = Human pharmacokinetics, single administration; type: in vivo; conditions: for CL/F / Cmax / MRT / T1/2 / tmax (median) / AUC(0-inf) / AUC(0-t) / Tmax: healthy adults, empty stomach; for Tmax: read-out: tmax (median)
Description: (§1) The formulation used in the clinical trial was prepared in the same manner as in Preparation Examples 1 and 2.

[2] = Human pharmacokinetics, multiple administration (Day 14); type: in vivo; conditions: for Accumulation ratio based on AUCτ / CL/Fss / Cmax, ss / MRT / T1/2 / Vz/Fss / tmax, ss (median) / AUCτ / AUC(0-inf): healthy adults; for Accumulation ratio based on AUCτ / CL/Fss / Cmax, ss / MRT / T1/2 / Vz/Fss / tmax, ss (median) / AUC(0-inf): Day 14; for AUCτ: Day 14, 12 hour dosing interval
Description: as §1

[3] = Pharmacokinetic model prediction of exposure in humans at various oral doses; parameters: species or system human; conditions: model-predicted
Text: Therefore, the optimal pharmacokinetic model parameters that can explain the changes in concentrations at all doses observed using Excel® and WinNonlin8.1 software were estimated for the blood drug concentration obtained in the human multidose clinical trial.

[4] = Safety/tolerance in healthy adults clinical trial; type: in vivo, human; conditions: 72 healthy adults, single (100-600 mg) and multiple (25-200 mg twice a day, 14 days) administration
Description: as §1

[5] = single oral 100 mg, enteric coated capsules
[6] = single oral 300 mg, enteric coated capsules
[7] = single oral 500 mg, enteric coated tablet
[8] = single oral 600 mg, enteric coated capsules
[9] = human, plasma, single oral 100 mg, enteric coated capsules
[10] = human, plasma, single oral 300 mg, enteric coated capsules
[11] = human, plasma, single oral 500 mg, enteric coated tablet
[12] = human, plasma, single oral 600 mg, enteric coated capsules

SMILES: O[C@H]1CCCN[C@@H]1CCCn1cnc2c(Cl)c(Cl)ccc21 [Active component]
- CL/F [1, 5]: 156.48 L/h
- Cmax [1, 5]: 123.96 ng/mL
- MRT [1, 5]: 9.26 h
- T1/2 [1, 5]: 6.91 h
- CL/F [1, 6]: 196.59 L/h
- Cmax [1, 6]: 276.80 ng/mL
- MRT [1, 6]: 9.75 h
- T1/2 [1, 6]: 8.33 h
- tmax (median) [1, 6]: 2.50 h
- CL/F [1, 7]: 213.75 L/h
- Cmax [1, 7]: 513.56 ng/mL
- MRT [1, 7]: 9.57 h
- T1/2 [1, 7]: 7.80 h
- tmax (median) [1, 7]: 3.01 h
- CL/F [1, 8]: 312.07 L/h
- Cmax [1, 8]: 213.43 ng/mL
- MRT [1, 8]: 9.79 h
- T1/2 [1, 8]: 9.90 h
- half-life ([1]; human, plasma, oral, single administration, across 100-600 mg doses, read-out: geometric mean half-life): 6.91 to 9.9 h
- AUC(0-inf) [1, 9]: 639 ng·h/mL
- AUC(0-t) [1, 9]: 594 ng·h/mL
- Tmax [1, 9]: 3 h
- AUC(0-inf) [1, 10]: 1530 ng·h/mL
- AUC(0-t) [1, 10]: 1480 ng·h/mL
- AUC(0-inf) [1, 11]: 2340 ng·h/mL
- AUC(0-t) [1, 11]: 2280 ng·h/mL
- AUC(0-inf) [1, 12]: 1920 ng·h/mL
- AUC(0-t) [1, 12]: 1010 ng·h/mL
- Tmax [1, 12]: 2 h
- relationship of plasma concentrations to dose ([1]; single administration): dose proportional relationship
- Accumulation ratio based on AUCτ ([2]; 25 mg tablet twice a day): 1.94
- CL/Fss ([2]; 25 mg tablet twice a day): 122.65 L/h
- Cmax, ss ([2]; 25 mg tablet twice a day): 36.50 ng/mL
- MRT ([2]; 25 mg tablet twice a day): 10.53 h
- T1/2 ([2]; 25 mg tablet twice a day): 7.63 h
- Vz/Fss ([2]; 25 mg tablet twice a day): 1433.79 L
- tmax, ss (median) ([2]; 25 mg tablet twice a day): 2.00 h
- AUCτ ([2]; 25 mg tablet twice a day): 183.32 ng·h/mL
- Accumulation ratio based on AUCτ ([2]; 50 mg tablet twice a day): 2.33
- CL/Fss ([2]; 50 mg tablet twice a day): 116.53 L/h
- Cmax, ss ([2]; 50 mg tablet twice a day): 102.61 ng/mL
- MRT ([2]; 50 mg tablet twice a day): 8.44 h
- T1/2 ([2]; 50 mg tablet twice a day): 4.40 h
- Vz/Fss ([2]; 50 mg tablet twice a day): 738.97 L
- AUCτ ([2]; 50 mg tablet twice a day): 429.09 ng·h/mL
- Accumulation ratio based on AUCτ ([2]; 100 mg tablet twice a day): 1.88
- CL/Fss ([2]; 100 mg tablet twice a day): 161.97 L/h
- Cmax, ss ([2]; 100 mg tablet twice a day): 151.27 ng/mL
- MRT ([2]; 100 mg tablet twice a day): 10.17 h
- T1/2 ([2]; 100 mg tablet twice a day): 9.26 h
- Vz/Fss ([2]; 100 mg tablet twice a day): 2163.04 L
- tmax, ss (median) ([2]; 100 mg tablet twice a day): 3.00 h
- AUCτ ([2]; 100 mg tablet twice a day): 617.40 ng·h/mL
- Accumulation ratio based on AUCτ ([2]; 200 mg tablet twice a day): 3.75
- CL/Fss ([2]; 200 mg tablet twice a day): 66.39 L/h
- Cmax, ss ([2]; 200 mg tablet twice a day): 595.35 ng/mL
- MRT ([2]; 200 mg tablet twice a day): 12.07 h
- T1/2 ([2]; 200 mg tablet twice a day): 12.35 h
- Vz/Fss ([2]; 200 mg tablet twice a day): 1182.53 L
- AUCτ ([2]; 200 mg tablet twice a day): 3012.35 ng·h/mL
- AUC(0-inf) ([2]; human, plasma, oral, 25 mg tablet twice a day): 301 ng·h/mL
- AUC(0-inf) ([2]; human, plasma, oral, 50 mg tablet twice a day): 565 ng·h/mL
- AUC(0-inf) ([2]; human, plasma, oral, 100 mg tablet twice a day): 888 ng·h/mL
- AUC(0-inf) ([2]; human, plasma, oral, 200 mg tablet twice a day): 4750 ng·h/mL
- AUC ([2]; human, plasma, oral, multiple administration, 14th day, across 25-200 mg, read-out: geometric mean dose interval in vivo exposure (AUCτ)): 183 to 3010 ng·h/mL
- half-life ([2]; human, plasma, oral, multiple administration, 14th day, across 25-200 mg, read-out: geometric mean half-life): 4.4 to 12.3 h
- relationship of plasma concentrations to dose ([2]; multiple administration, dose range of 25 mg to 200 mg): dose linear relationship
- AUCtau ([3]; oral Dose 50 mg): 231.6352 ng·h/mL
- AUCtau—24 hr ([3]; oral Dose 50 mg): 463.2704 ng·h/mL
- CL/F ([3]; oral Dose 50 mg): 215856.7 mL/h
- Cmax ([3]; oral Dose 50 mg): 38.271 ng/mL
- T1/2 ([3]; oral Dose 50 mg): 9.753 h
- Tmax ([3]; oral Dose 50 mg): 2.803 h
- AUCtau ([3]; oral Dose 100 mg): 463.2704 ng·h/mL
- AUCtau—24 hr ([3]; oral Dose 100 mg): 926.5407 ng·h/mL
- CL/F ([3]; oral Dose 100 mg): 215856.7 mL/h
- Cmax ([3]; oral Dose 100 mg): 76.5419 ng/mL
- T1/2 ([3]; oral Dose 100 mg): 9.753 h
- Tmax ([3]; oral Dose 100 mg): 2.803 h
- AUCtau ([3]; oral Dose 150 mg): 694.9055 ng·h/mL
- AUCtau—24 hr ([3]; oral Dose 150 mg): 1389.811 ng·h/mL
- CL/F ([3]; oral Dose 150 mg): 215856.7 mL/h
- Cmax ([3]; oral Dose 150 mg): 114.813 ng/mL
- T1/2 ([3]; oral Dose 150 mg): 9.753 h
- Tmax ([3]; oral Dose 150 mg): 2.803 h
- AUCtau ([3]; oral Dose 200 mg): 926.5413 ng·h/mL
- AUCtau—24 hr ([3]; oral Dose 200 mg): 1853 ng·h/mL
- CL/F ([3]; oral Dose 200 mg): 215856.5 mL/h
- Cmax ([3]; oral Dose 200 mg): 153.084 ng/mL
- T1/2 ([3]; oral Dose 200 mg): 9.753 h
- Tmax ([3]; oral Dose 200 mg): 2.803 h
- serious abnormal signs or side effects [4]: no serious abnormal signs or side effects
